Here are results for two molecules from PMC6694155, “PTPσ inhibitors promote hematopoietic stem cell regeneration” (Nature Communications, 2019).

This assay relates to C57BL/6 mice. The assay is described as follows: Hematopoietic regeneration at day +10 after 750 cGy TBI (PB counts, BM KSL and progenitor cells, CFCs). It counts as in vivo, mouse. More on the design: Supplementary Figure 4c: BFU-E / Supplementary Figure 5e: CFU-GM / Supplementary Figure 5e: BFU-E / Supplementary Figure 5e: CFU-GEMM: unit not given here. The procedure: Femurs and tibiae were collected from killed C57BL/6 or Ptprs^−/− mice and flushed with IMDM containing 10% FBS and 1% penicillin–streptomycin for BM cells. PB was collected through sub-mandibular puncture. Cells were filtered through a 40 μM strainer and then treated with ACK lysis buffer (Sigma Aldrich) before antibody staining for flow cytometry. For KSL and CD150^+CD48^−KSL cell analysis, BM cells were stained with allophycocyanin (APC)-and Cy7-conjugated anti-mouse Sca1 (BD Biosciences, #560654, 1:100), phycoerythrin (PE)-conjugated anti-mouse c-kit (BD Biosciences, #553355, 1:100), V450 lineage cocktail (BD Biosciences, 561301, 1:10), Alexa Fluor 488-conjugated anti-mouse CD48 (BioLegend, #103414, 1:100), and Alexa Fluor 647-conjugated anti-mouse CD150 (Biolegend, #115918, 1:100) antibodies. For MEP, CMP, GMP, and CLP cell analysis, BM cells were stained with APC-Cy7-conjugated anti-mouse Sca1 (BD Biosciences, #560654, 1:100), PE-conjugated anti-mouse ckit (BD Biosciences, #553355, 1:100), V450 lineage cocktail (BD Biosciences, #561301; 1:10), Alexa Fluor 488-conjugated anti-mouse CD127 (BD Biosciences, #561533, 1:100), Alexa Fluor 647-conjugated anti-mouse CD34 (BD Biosciences, #560230; 1:100), and BV605-conjugated anti-mouse CD16/32 antibodies (BD Biosciences, #563006; 1:100). For donor engraftment analysis in transplanted mice, PB or BM cells were stained with BV605-conjugated anti-mouse CD45.2 (BioLegend, #109841, 1:100), fluorescein isothiocyanate (FITC)-conjugated anti-mouse CD45.1 (BD Biosciences, #553775, 1:100), PE-conjugated anti-mouse Mac-1 (BD Biosciences, #557397, 1:100) and anti-mouse Gr1 (BD Biosciences, #553128, 1:100), V450-conjugated anti-mouse CD3 (BD Biosciences, #561389, 1:100), and APC-Cy7-conjugated anti-mouse B220 (BD Biosciences, 552094, 1:100) antibodies.
For survival studies, 10-week-old female C57BL/6 mice were irradiated with 750 cGy TBI, which is lethal for ~50% of C57BL/6 mice by day + 30 (LD50/30), using a Shepherd Cesium-137 irradiator. Twenty four hours post irradiation, mice were administered daily subcutaneous injections of 5 mg/kg DJ001 or DJ009, or vehicle in a volume of 100 μL for 10 days. DJ001 or DJ009 injections were prepared in PBS, 0.5% Tween 80, and 10% DMSO. Corresponding vehicle injections contained PBS, 10% DMSO, and 0.5% Tween 80. PB complete blood counts were measured using a Hemavet 950 instrument (Drew Scientific) at day + 10 post irradiation. For hematopoietic analysis, BM cells were collected at day + 10 post irradiation. To study whether DJ001 increased survival rates through activation of RAC signaling, the RAC inhibitor, EHT1864 (Selleckchem), was dissolved in PBS and administered intraperitoneally, 40 mg/kg every other day, to 750 cGy-irradiated mice until day + 10.
CFC assays (colony-forming unit-granulocyte monocyte), burst-forming unit-erythroid, and CFU-GEMM were performed using MethoCult GF M3434 (Stemcell Technologies)[6]. For all in vitro assays, BM CD34^−KSL cells, KSL cells, and Lin^− cells were cultured in TSF media (IMDM, 10% FBS, 1% pen-strep, 20 ng/mL recombinant mouse TPO, 125 ng/mL recombinant mouse SCF, 50 ng/mL recombinant mouse Flt3 ligand). Recombinant mouse SCF, Flt3 ligand, and TPO were purchased from R&D Systems. For competitive repopulation assays, BM cells were isolated from donor 10–12-week-old female CD45.2^+ mice. Recipient 10-week-old female CD45.1^+ B6.SJL mice were irradiated with 950 cGy TBI using a Cs137 irradiator and donor BM cells were administered via tail vein injection along with a competing dose of 1 × 10^5 non-irradiated host BM cells. Multilineage donor hematopoietic cell engraftment was measured in the PB by flow cytometry.

Setting [1] is: day +10 after 750 cGy TBI, individual mice.
[2] abbreviates: day +10 after 750 cGy TBI, replicates.
The mark [3] stands for this setting: day +10 after 750 cGy, 5 mg/kg s.c. daily.
The mark [4] stands for this setting: day +10 after 750 cGy, 5 mg/kg s.c. daily, 5 mg/kg.
[5] abbreviates: after 750 cGy TBI, individual mice.

Values joined by “and” are separate entries in the source; they are usually repeats but may differ in a detail not shown here. Identical values can stand only once.

For the molecule `O=C(/C=C\Nc1cccc([N+](=O)[O-])c1)c1ccccc1` [DJ001, (Z)-3-((3-nitrophenyl)amino)-1-phenylprop-2-en-1-one], for the setting “750 cGy, 5 mg/kg s.c. daily day +1 to +10”, the “recovery of BM KSL cells, ckit+sca-1−lin− myeloid progenitors and CFCs following TBI” value is “accelerated the recovery”. Also, for the setting “day +10 after 750 cGy”, the “percentages of BM MEPs, CMPs, GMPs, or PB myeloid, B-cell or T-cell populations” value is “did not alter the percentages” and the “percentages of BM common lymphoid progenitors (CLPs)” value is “modest increase”. In addition, under setting [1], the “Supplementary Figure 4d (center left panel): BM progenitor cells” value is 0.05534 and 0.6345 and 0.3797 and 0.1366 and 0.1346 and 0.08271 and 0.1205 and 0.1142 and 0.1459 and 0.6791; the “Supplementary Figure 4d (center right panel): BM progenitor cells” value was 0.1315 and 0.5274 and 0.7758 and 0.2631 and 0.4325 and 0.1366 and 0.1603 and 0.4187 and 0.3345 and 1.367; the “Supplementary Figure 4d (left panel): BM progenitor cells” value was 0.1083 and 0.8819 and 0.5478 and 0.2535 and 0.1578 (2×) and 0.2622 and 0.4013 and 0.1995 and 0.6663; the “Supplementary Figure 4d (right panel): BM progenitor cells” value was 0.07453 and 0.07514 and 0.1093 and 0.1068 and 0.06267 and 0.05116 and 0.04956 and 0.2046 and 0.1087. Further, under setting [2], the “Supplementary Figure 4c: BFU-E” value is 0 (2×) and 2 and 1 (3×); the “Supplementary Figure 4c: CFU-GEMM” value is 0 and 2 and 1 (2×) and 3 (2×); the “Supplementary Figure 4c: CFU-GM” value was 5 (3×) and 7 and 6 and 10. Besides, under setting [3], the “PB lymphocytes compared with vehicle” value is on record as “more than twofold increased”, the “PB neutrophils compared with vehicle” value is on record as “more than twofold increased” and the “PB white blood cells compared with vehicle” value is on record as “more than twofold increased”. Also, under setting [4], the “PB WBCs per mouse (Figure 2c left panel)” value is 0.86 and 0.62 and 0.68 and 0.76 and 0.34 and 0.7 and 0.52 and 0.64; the “PB lymphocytes (LYMPH) per mouse (Figure 2c right panel)” value is 0.38 and 0.39 and 0.4 and 0.45 and 0.24 and 0.36 and 0.33 and 0.42 and 0.37; the “PB neutrophils (NEU) per mouse (Figure 2c center panel)” value is 0.27 and 0.16 and 0.18 and 0.17 and 0.06 and 0.2 and 0.12. Also, under “day +10 post 750 cGy”, the “numbers of BM KSL cells per mouse (Figure 2e center left panel)” value is 15.7 and 9.66 and 15 and 10.6 and 9.42 and 14.8 and 11.8 and 11.5 and 10.7; the “numbers of BM c-kit+sca-1− cells per mouse (Figure 2e right panel)” value was 1.33 and 6.87 and 4.4 and 4.05 and 3.27 and 5.18 and 7.29 and 2.89 and 7.28; the “percentages of BM KSL cells per mouse (Figure 2e left panel)” value was 0.749% and 0.807% and 1.138% and 0.766% and 0.608% and 0.862% and 0.365% and 1.197% and 0.783%; the “percentages of BM c-kit+sca-1− cells per mouse (Figure 2e center right panel)” value was 1.717% and 4.73% and 3.337% and 2.916% and 2.11% and 3.013% and 2.25% and 3.004% and 5.312%. In addition, the “increase of percentages and numbers of BM KSL stem/progenitor cells compared to irradiated control mice” value (irradiated mice, day +10) is on record as 2 fold.

Consider `O=C(/C=C\Nc1cc(F)cc(F)c1)c1ccccc1` [DJ009, (Z)-3-((3,5-difluorophenyl)amino)-1-phenylprop-2-en-1-one], for which, under “750 cGy TBI, 5 mg/kg DJ009 daily for 10 days”, the “PB WBCs, neutrophils and lymphocytes, BM KSL cells, and CFCs” value is listed as “significant increase”. Under setting [5], the “Supplementary Figure 5c (center panel): PB counts” value is 0.08 and 0.19 and 0.29 and 0.1 and 0.39 and 0.13 and 0.2; the “Supplementary Figure 5c (left panel): PB counts” value was 1.4 and 0.72 and 1.76 and 0.4 and 1.62 and 0.52 and 0.94; the “Supplementary Figure 5c (right panel): PB counts” value is 1.27 and 0.4 and 1.32 and 0.26 and 0.96 and 0.29 and 0.63; the “Supplementary Figure 5d (center panel): BM cells” value was 4.83 and 5.26 and 6.06 and 14.68 and 8.28 and 9.38 and 7.6. In addition, the “Supplementary Figure 5d (left panel): BM cells” value under setting [5] is 1.079 and 0.621 and 0.841 and 0.709 and 1.581 and 1.301 and 0.94. Moreover, under “after 750 cGy TBI, replicates”, the “Supplementary Figure 5e: BFU-E” value was 0 (6×) and 1 (2×) and 2; the “Supplementary Figure 5e: CFU-GEMM” value was 1 and 0 (3×) and 3 and 2 (3×) and 4; the “Supplementary Figure 5e: CFU-GM” value is 5 and 4 and 2 and 6 and 8 and 7 and 19 and 18 and 15.
